The text below walks through data of PMC7822874, “Chemoprotective antimalarials identified through quantitative high-throughput screening of Plasmodium blood and liver stage parasites” (Scientific Reports, 2021).

Series [1] has as its system P. falciparum Dd2 (clone B2) asexual blood stage parasites. The series is described as follows: P. falciparum Dd2 asexual blood stage SYBR Green-I 72 h proliferation assay (qHTS). The series is classed as cell-based, Plasmodium falciparum. The conditions noted are these: Plasmodium falciparum, DD2, Dd2 parental; Hill fit, averaged from three independent replicates; top concentration 29 µM; read-out: Average AC50 (Log[M]), Dd2 (converted). (Quantitative high-throughput screening tests each substance at several concentrations.)

Series [2] deals with P. falciparum Dd2 Cytb G131S. The experiment in a line: SYBR Green ABS proliferation assay, NCGC00374598 selected clone C11. The series is classed as cell-based, Plasmodium falciparum. The conditions noted are these: Plasmodium falciparum. As for the experimental part: (§1) As resistance selection studies implicated the parasite cytochrome bc1 complex in mediating reduced parasite susceptibility to both NCGC00473217 and NCGC00374598, we leveraged these drug-selected parasites to test for altered drug response to a panel of antimalarial compounds.
(§2) The P. falciparum parasite Dd2 line was cultured in vitro using standard conditions. […] Tissue culture flasks and assay plates were incubated at 37 °C under a gas mixture of 5% CO2, 5% O2 and 90% N2. […] Significant differences were assessed using two-sided Student’s t-tests. All HTS assays were stopped and read at 72 h. Percent response values represent relative growth as judged by SYBR Green-I fluorescence intensity values normalized to controls.
(§3) Fresh uninfected RBCs (0.5% hematocrit) were added on day 7 and media was changed every other day. […] Resistant parasites were maintained under drug media at a volume of 50 mL until a high parasitemia (> 5%) was achieved. Aliquots of the bulk resistant cultures were frozen in cryovials before cloning by limiting dilution in 96-well plates (seeded at 0.25 or 0.5 parasites/well)[70]. After 3 weeks of cloning, we screened for positive wells by flow cytometry with SYBR Green-stained cells. […] Parasites were harvested by saponin lysis at the trophozoite stage and genomic DNA was extracted using the QIAamp DNA Blood Midi Kit (Qiagen, Germantown, MD)[71].

Another series concerns HepG2. The conditions noted are these: human, hepg2 cells, 48 h.
Series [3] is described as follows: in vitro. The note with it: human, hepg2 cells.
A short description of series [4]: in vitro. The conditions noted are these: human, HepG2-A16-CD81EGFP cells, uninfected.
In a further series the test system is HepG2-A16-CD81EGFP cells. The note with it: average of 2 wells, repeat 2; for HepG2 viability signal, 1 uM, repeat 2: nominal 1 uM (10 mM stock), […] for 15 mM, 1.2 uM for 12 mM, 2 uM for 20 mM stock; for HepG2 viability signal, 3 uM, repeat 2: nominal 3 uM (10 mM stock), 4.5 uM for 15 mM, 3.6 uM for 12 mM, 6 uM for 20 mM stock.
The subject of series [5] is Plasmodium falciparum Dd2 asexual blood stage parasites. The series is described as follows: microbe, parasite or virus in culture. Also noted: species or system Plasmodium falciparum Dd2 in human erythrocytes; single determination (one 11-point concentration-response curve). The note with it: Plasmodium falciparum, DD2, Erythrocyte, 72 h; read-out: AC50.
In series [6] the test system is P. berghei-ANKA-GFP-LucCON liver stage parasites in HepG2-A16-CD81EGFP cells. The series is described as follows: P. berghei liver stage Pb-Luc assay, Method 1 (UCSD, 1536-well). The note with it: Plasmodium berghei; for activity at 1 µM / activity at 3 µM: 48 h, average of 2 wells, 1536-well plate; for activity at 1 µM: nominal 1 uM (10 mM stock), […] for 15 mM, 1.2 uM for 12 mM, 2 uM for 20 mM stock; for activity at 3 µM: nominal 3 uM (10 mM stock), 4.5 uM for 15 mM, 3.6 uM for 12 mM, 6 uM for 20 mM stock; for AC50: Method 1. Format: cell-based, Plasmodium berghei.

Series [7] concerns P. falciparum Dd2 Cytb V259L. The series is described as follows: SYBR Green ABS proliferation assay, NCGC00473217 selected clone F06. The note with it: Plasmodium falciparum. The series is classed as cell-based, Plasmodium falciparum. As for the experimental part:
as §1, §2, §3

The mark [8] stands for this setting: DD2, […], averaged from three independent replicates, top concentration 29 µM, read-out: Average AC50 (Log[M]), NCGC00374598 clone C11 (Cytb G131S) (converted).
[9] abbreviates: repeat 1, read-out: Pb-Luc signal, 1 uM, repeat 1.
Where [10] appears, read: repeat 2, read-out: Pb-Luc signal, 1 uM, repeat 2.
Where [11] appears, read: repeat 3, read-out: Pb-Luc signal, 1 uM, repeat 3.
Setting [12] is: repeat 1, read-out: Pb-Luc signal, 3 uM, repeat 1.
The mark [13] stands for this setting: repeat 2, read-out: Pb-Luc signal, 3 uM, repeat 2.
Where [14] appears, read: repeat 3, read-out: Pb-Luc signal, 3 uM, repeat 3.
[15] abbreviates: DD2, […], averaged from three independent replicates, top concentration 29 µM, read-out: Average AC50 (Log[M]), NCGC00473217 clone F06 (Cytb V259L) (converted).

Read-outs that look alike come from different tables or passages of the source. Where only a bound is given, the exact number is not on record here.

The term AC50 denotes the midpoint of the concentration-response curve, whichever way the signal moves. For `N[S+](=O)([O-])c1cc2c(cc1Cl)N=CN[S+]2(=O)[O-]` [NCGC00015242-14], the AC50 in series [1] was 2e-06 M; in [2] (setting [8]), 7.1e-07 M.
Usually CC50 stands for the concentration giving 50% cytotoxicity. High values mean better tolerance by the cells, low ones harm at low concentration. As for `O=C(Nc1ccc(Cl)cc1)N1CCC(c2nc(-c3ccccc3Cl)no2)CC1` [MLS000529331-01], the “Log AC50 (M)” value in the series on HepG2 is given as -4.4643 M. The compound also gave a CC50 at 48 h in the series “in vitro [3]” of 34300 nM.
In general, viability refers to a read-out of living cells in per cent, often relative to untreated cells. In turn, `COc1ccc(N2CCN(c3cc(C4CC(N)C4)nc(N)n3)CC2(C)C)cc1` (stereo not shown) [NCGC00422579-01] gave a CC50 at 48 h in the series “in vitro [3]” greater than 57000 nM. Also, the viability at 48 h, 1 µM in the series “in vitro [4]” came out at 103%. Moreover, in the series “in vitro [4]”, the viability at 48 h, 3 µM turned out to be 102%. Moreover, the “HepG2 viability signal, 1 uM, repeat 2” value in the series on HepG2-A16-CD81EGFP cells was 102.33%. For the same compound, the “HepG2 viability signal, 3 uM, repeat 2” value in the series with HepG2-A16-CD81EGFP cells amounted to 97.69%. Besides, the concentration at half-maximal activity (AC50) in series [5] amounted to 2990 nM. Besides, the activity at 1 µM in [6] (setting [9]) came to 82.6%; in series [6] (setting [10]) it was 91.8%; in series [6] (setting [11]) it was 99.3%. The values for the activity at 3 µM in series [6] (setting [12]), in series [6] (setting [13]) and in [6] (setting [14]) were 76.6%, 88.5% and 81.6%, respectively.
Take `O=C1CCN(Cc2ccc(F)cc2F)CCCC(c2nc(-c3cnccn3)no2)CCN1` (stereo not shown) [NCGC00465975-01]: the “Log AC50 (M)” value with HepG2 is -4.9143 M. The compound further gave a CC50 at 48 h in the series “in vitro [3]” of 12200 nM.
In the case of `CCCN1C(CC(C)C)=N[S+](=O)([O-])c2cc(NC(=O)C3CCOCC3)ccc21` [NCGC00521138-01], the AC50 in [2] (setting [8]) is 3.99e-06 M; in series [7] (setting [15]), 1.22e-05 M.
As for `Cc1ccc(NC(=O)C2CCN(c3cc(C(F)(F)F)ncn3)CC2)cc1` [NCGC00455557-01], the “Log AC50 (M)” value with HepG2 was -4.4643 M. This compound also had a cytotoxic concentration (CC50) at 48 h in “in vitro [3]” of 34300 nM.
In the case of `CCCN1C(CC(C)C)=N[S+](=O)([O-])c2cc(NC(=O)c3cccc(C#N)c3)ccc21` [NCGC00531772-01], the AC50 is 2.67e-07 M in series [2] (DD2, cytochrome b mutant line, second value triple, c6, […], read-out: log AC50, mean (converted)) and 8.93e-07 M in series [7] (DD2, cytochrome b mutant line, third value triple, c9, […], read-out: log AC50, mean (converted)).
On to `CCCN1C(C)=N[S+](=O)([O-])c2cc(NC(=O)c3cccs3)ccc21` [NCGC00522606-01], for which the concentration at half-maximal activity (AC50) in series [1] is 8.93e-06 M; in series [2] (setting [8]), 2e-06 M.
As for `CCCN1C(CC(C)C)=N[S+](=O)([O-])c2cc(NC(=O)C(=O)OCC)ccc21` [NCGC00521135-01], the AC50 is 1.59e-05 M in series [1] and 7.96e-06 M in series [2] (setting [8]).
As for `CCCN1C(CC(C)C)=N[S+](=O)([O-])c2cc(N[S+](=O)([O-])c3cc4ccccc4s3)ccc21` [NCGC00521156-01], the AC50 in series [1] is 1.26e-06 M; in series [2] (setting [8]) it was 1e-06 M.
With `CCCN1C(CC(C)C)=N[S+](=O)([O-])c2cc(N[S+](=O)([O-])c3ccc(Cl)s3)ccc21` [NCGC00521874-01], the values for the AC50 in series [1], in [2] (setting [8]) and in [7] (setting [15]) were 1.42e-06 M, 8.93e-07 M and 7.1e-07 M, respectively.
Take `CCCN1C(CC(C)C)=N[S+](=O)([O-])c2cc(N[S+](=O)([O-])c3ccccc3C)ccc21` [NCGC00521140-01]: the AC50 in [7] (setting [15]) is 1e-05 M.
With `Cc1nn2c(c1-c1ccccc1Oc1ccccc1)N(Cc1ccccc1O)CCC2` [NCGC00420455-01], the CC50 at 48 h in “in vitro [3]” was greater than 57000 nM. Also, the viability at 48 h, 1 µM in “in vitro [4]” is 104%. Further, in “in vitro [4]”, the viability at 48 h, 3 µM came out at 115%. For the same compound, the “HepG2 viability signal, 1 uM, repeat 2” value in the series on HepG2-A16-CD81EGFP cells was found to be 99.80%. Further, the “HepG2 viability signal, 3 uM, repeat 2” value with HepG2-A16-CD81EGFP cells was determined as 116.91%. Moreover, the concentration at half-maximal activity (AC50) in [5] is 4850 nM; in [6] (Hill fit, 50% of maximum activity response, read-out: AC50) it was 1410 nM; in series [6] (log10 of molar AC50 from Hill fit, read-out: Log AC50 (converted)), 1410 nM. The activity at 1 µM in [6] (setting [9]) came out at 75.6%; in series [6] (setting [10]), 75%; in series [6] (setting [11]) it was 78.3%. For the same compound, the activity at 3 µM in series [6] (setting [12]) was 1.18%; in series [6] (setting [13]) it was 4.89%; in series [6] (setting [14]) it was 23.7%.
With `CN1C(CCl)Nc2cc(Cl)c([S+](N)(=O)[O-])cc2[S+]1(=O)[O-]` (stereo not shown) [NCGC00167446-03], the AC50 in series [1] is 2.82e-08 M; in series [2] (setting [8]), 3.17e-08 M; in [7] (setting [15]) it was 3.17e-08 M.
Take `CCCN1C(C)=N[S+](=O)([O-])c2cc(NC(=O)c3ccc(F)cc3)ccc21` [NCGC00522607-01]: the concentration at half-maximal activity (AC50) was 1.12e-06 M in [1] and 1.26e-06 M in [2] (setting [8]).
As for `CCCN1C(CC(C)C)=N[S+](=O)([O-])c2cc(N[S+](=O)([O-])c3ccccc3)ccc21` [NCGC00521146-01], the AC50 in series [1] is 7.96e-06 M; in series [2] (setting [8]), 7.1e-06 M.
